# In ChEMBL document CHEMBL1201862, “PubChem BioAssay data set” (2004):
#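 Results reflect a 48-hour exposure of cells in 96-well plates to compound at five concentrations. The concentration for 50% growth inhibition is given as GI50.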 Active and inactive are the calls of the source. Cut-off read from the data, not from the text of the source: active = GI50 up to about 1.1 µM and inactive = higher.
# Tests used:
# Assay in all cases: growth of human tumour cells (NCI), 48 h
# SF-268 = system: SF-268
# HOP-92 = system: HOP-92
# LOX IMVI = system: LOX IMVI
# SW-620 = system: SW-620
# RPMI-8226 = system: RPMI-8226
# A498 = system: A498
# M14 = system: M14
# KM12 = system: KM12
# SK-MEL-5 = system: SK-MEL-5
# DMS-273 = system: DMS-273
# OVCAR-4 = system: OVCAR-4
# SK-OV-3 = system: SK-OV-3
# NCI-H460 = system: NCI-H460
# HCT-116 = system: HCT-116
# U-251 = system: U-251
# HCT-15 = system: HCT-15
# CCRF-CEM = system: CCRF-CEM
# EKVX = system: EKVX
# SNB-19 = system: SNB-19
# DLD-1 = system: DLD-1
# LXFL 529 = system: LXFL 529
# COLO 205 = system: COLO 205
# UO-31 = system: UO-31
# UACC-257 = system: UACC-257
# 786-0 = system: 786-0
# A549 = system: A549
# HOP-18 = system: HOP-18
# XF498 = system: XF498
# K562 = system: K562
# SNB-78 = system: SNB-78
# SF-295 = system: SF-295
# DMS-114 = system: DMS-114
# ACHN = system: ACHN
# SF-539 = system: SF-539
# NCI-H23 = system: NCI-H23
# SK-MEL-2 = system: SK-MEL-2
# OVCAR-3 = system: OVCAR-3
# SK-MEL-28 = system: SK-MEL-28
# HL-60 = system: HL-60
# OVCAR-5 = system: OVCAR-5
# HCC 2998 = system: HCC 2998
# IGROV-1 = system: IGROV-1
# UACC-62 = system: UACC-62
# TK-10 = system: TK-10
# MOLT-4 = system: MOLT-4
# Malme-3M = system: Malme-3M
# OVCAR-8 = system: OVCAR-8
# SN12C = system: SN12C
# CAKI-1 = system: CAKI-1
# M19-MEL = system: M19-MEL
# NCI-H522 = system: NCI-H522
# HT-29 = system: HT-29
# HOP-62 = system: HOP-62
# KM-20L2 = system: KM-20L2
# RXF 631 = system: RXF 631
# RXF 393 = system: RXF 393
# SR = system: SR
structure (smiles),measurement,setting,value
O=C(O)COc1ccc2c3c1C(=O)CCC3CO2 (stereo not given),GI50,SF-268,> 100 µM (inactive)
same,GI50,HOP-92,> 100 µM (inactive)
same,GI50,LOX IMVI,> 100 µM (inactive)
same,GI50,SW-620,> 100 µM (inactive)
same,GI50,RPMI-8226,> 100 µM (inactive)
same,GI50,A498,> 100 µM (inactive)
same,GI50,M14,> 100 µM (inactive)
same,GI50,KM12,> 100 µM (inactive)
same,GI50,SK-MEL-5,> 100 µM (inactive)
same,GI50,DMS-273,> 100 µM (inactive)
same,GI50,OVCAR-4,> 100 µM (inactive)
same,GI50,SK-OV-3,> 100 µM (inactive)
same,GI50,NCI-H460,> 100 µM (inactive)
same,GI50,HCT-116,> 100 µM (inactive)
same,GI50,U-251,> 100 µM (inactive)
same,GI50,HCT-15,> 100 µM
same,GI50,CCRF-CEM,> 100 µM (inactive)
same,GI50,EKVX,> 100 µM (inactive)
same,GI50,SNB-19,> 100 µM (inactive)
same,GI50,DLD-1,> 100 µM (inactive)
same,GI50,LXFL 529,> 100 µM (inactive)
same,GI50,COLO 205,> 100 µM (inactive)
same,GI50,UO-31,> 100 µM (inactive)
same,GI50,UACC-257,> 100 µM (inactive)
same,GI50,786-0,> 100 µM (inactive)
same,GI50,A549,> 100 µM (inactive)
same,GI50,HOP-18,> 100 µM (inactive)
same,GI50,XF498,> 100 µM (inactive)
same,GI50,K562,> 100 µM (inactive)
same,GI50,SNB-78,> 100 µM (inactive)
same,GI50,SF-295,> 100 µM (inactive)
same,GI50,DMS-114,> 100 µM (inactive)
same,GI50,ACHN,> 100 µM (inactive)
same,GI50,SF-539,> 100 µM (inactive)
same,GI50,NCI-H23,> 100 µM (inactive)
same,GI50,SK-MEL-2,> 100 µM (inactive)
same,GI50,OVCAR-3,> 100 µM (inactive)
same,GI50,SK-MEL-28,> 100 µM (inactive)
same,GI50,HL-60,> 100 µM (inactive)
same,GI50,OVCAR-5,> 100 µM (inactive)
same,GI50,HCC 2998,> 100 µM (inactive)
same,GI50,IGROV-1,> 100 µM (inactive)
same,GI50,UACC-62,> 100 µM (inactive)
same,GI50,TK-10,> 100 µM (inactive)
same,GI50,MOLT-4,> 100 µM (inactive)
same,GI50,Malme-3M,> 100 µM (inactive)
same,GI50,OVCAR-8,> 100 µM (inactive)
same,GI50,SN12C,> 100 µM (inactive)
same,GI50,CAKI-1,> 100 µM (inactive)
same,GI50,M19-MEL,> 100 µM (inactive)
same,GI50,NCI-H522,> 100 µM (inactive)
same,GI50,HT-29,> 100 µM (inactive)
same,GI50,HOP-62,> 100 µM (inactive)
same,GI50,KM-20L2,> 100 µM (inactive)
COc1ccccc1-c1csc(CCC(N)C(=O)O)n1 (stereo not given),GI50,HOP-92,> 100 µM (inactive)
same,GI50,A498,> 100 µM (inactive)
same,GI50,M14,> 100 µM (inactive)
same,GI50,KM12,> 100 µM (inactive)
same,GI50,DMS-273,> 100 µM (inactive)
same,GI50,SK-OV-3,> 100 µM (inactive)
same,GI50,NCI-H460,> 100 µM (inactive)
same,GI50,HCT-116,> 100 µM (inactive)
same,GI50,U-251,> 100 µM (inactive)
same,GI50,RXF 631,> 100 µM (inactive)
same,GI50,CCRF-CEM,> 100 µM (inactive)
same,GI50,EKVX,> 100 µM (inactive)
same,GI50,SNB-19,> 100 µM (inactive)
same,GI50,UO-31,> 100 µM (inactive)
same,GI50,UACC-257,> 100 µM (inactive)
same,GI50,A549,> 100 µM (inactive)
same,GI50,SNB-78,> 100 µM (inactive)
same,GI50,SF-295,> 100 µM (inactive)
same,GI50,DMS-114,> 100 µM (inactive)
same,GI50,ACHN,> 100 µM (inactive)
same,GI50,NCI-H23,> 100 µM (inactive)
same,GI50,SK-MEL-28,> 100 µM (inactive)
same,GI50,HL-60,> 100 µM (inactive)
same,GI50,OVCAR-5,> 100 µM (inactive)
same,GI50,RXF 393,> 100 µM (inactive)
same,GI50,IGROV-1,> 100 µM (inactive)
same,GI50,UACC-62,> 100 µM (inactive)
same,GI50,TK-10,26.3 µM (inactive)
same,GI50,MOLT-4,> 100 µM (inactive)
same,GI50,SR,> 100 µM (inactive)
same,GI50,OVCAR-8,> 100 µM (inactive)
same,GI50,M19-MEL,> 100 µM (inactive)
same,GI50,NCI-H522,> 100 µM (inactive)
same,GI50,HT-29,> 100 µM (inactive)
same,GI50,HOP-62,> 100 µM (inactive)
same,GI50,KM-20L2,> 100 µM (inactive)
